From PubChem BioAssay (NCI)
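Grown in 96-well plates, cells were treated for 48 hours with each compound at five concentrations. Insufficient inhibition: endpoint recorded as highest concentration tested. GI50 = concentration required for 50% inhibition of growth. At the TGI there is no net growth.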

What was measured:
Assay in all cases: inhibition of tumour cell growth, NCI panel, 48 h
[1] = system: BT-549 breast
[2] = system: SK-MEL-5 melanoma
[3] = system: HCT-116 colon
[4] = system: SF-295 CNS
[5] = system: NCI-H23 lung
[6] = system: 786-0 renal
[7] = system: MCF7 breast
[8] = system: HS 578T breast
[9] = system: NCI/ADR-RES ovarian
[10] = system: SN12C renal
[11] = system: LOX IMVI melanoma
[12] = system: HOP-62 NSCLC
[13] = system: PC-3 prostate
[14] = system: IGROV1 ovarian
[15] = system: COLO 205 colon
[16] = system: CAKI-1 renal
[17] = system: EKVX NSCLC
[18] = system: U251 CNS
[19] = system: HOP-92 NSCLC
[20] = system: OVCAR-5 ovarian
[21] = system: UO-31 renal
[22] = system: MDA-MB-435
[23] = system: SK-OV-3 ovarian
[24] = system: NCI-H522 lung
[25] = system: OVCAR-4 ovarian
[26] = system: SNB-19 CNS
[27] = system: OVCAR-3 ovarian
[28] = system: OVCAR-8 ovarian
[29] = system: HL-60(TB) leukemia
[30] = system: HCC-2998 colon
[31] = system: KM12 colon
[32] = system: DU-145 prostate
[33] = system: SW-620 colon
[34] = system: SK-MEL-28 melanoma
[35] = system: M14 melanoma
[36] = system: MDA-MB-231 breast
[37] = system: ACHN renal
[38] = system: UACC-257 melanoma
[39] = system: SF-268 CNS
[40] = system: SF-539 CNS
[41] = system: NCI-H460 lung
[42] = system: SNB-75 CNS
[43] = system: SK-MEL-2 melanoma
[44] = system: HCT-15 colon
[45] = system: TK-10 renal
[46] = system: A498 renal
[47] = system: RPMI-8226 leukemia
[48] = system: T-47D breast
[49] = system: K-562 leukemia
[50] = system: A549 NSCLC
[51] = system: SR leukemia
[52] = system: UACC-62 melanoma
[53] = system: RXF 393 renal

C=C(CNCc1ccccc1)c1ccc(C(=O)Nc2ccccc2N)cc1
GI50 [1]: 15.4 µM
TGI [1]: > 100 µM
GI50 [2]: 4.66 µM
TGI [2]: 17.4 µM
GI50 [3]: 15 µM
TGI [3]: > 100 µM
GI50 [4]: 7.28 µM
TGI [4]: 37 µM
GI50 [5]: 2.37 µM
TGI [5]: 8.23 µM
GI50 [6]: 4.44 µM
TGI [6]: > 100 µM
GI50 [7]: 41.1 µM
TGI [7]: > 100 µM
GI50 [8]: 15.2 µM
TGI [8]: > 100 µM
GI50 [9]: 3.21 µM
TGI [9]: 18.8 µM
GI50 [10]: 0.583 µM
TGI [10]: 14.8 µM
GI50 [11]: 2.45 µM
TGI [11]: 8.88 µM
GI50 [12]: 4.57 µM
TGI [12]: > 100 µM
GI50 [13]: 18.5 µM
TGI [13]: > 100 µM
GI50 [14]: 3.21 µM
TGI [14]: 36.9 µM
GI50 [15]: 4.9 µM
TGI [15]: 38.5 µM
GI50 [16]: 5.35 µM
TGI [16]: 32.5 µM
GI50 [17]: 32.5 µM
TGI [17]: > 100 µM
GI50 [18]: 9.86 µM
TGI [18]: > 100 µM
GI50 [19]: 15.1 µM
TGI [19]: 55.9 µM
GI50 [20]: 14.4 µM
TGI [20]: 40.1 µM
GI50 [21]: 3.64 µM
TGI [21]: 18.2 µM
GI50 [22]: 5.24 µM
TGI [22]: 27.7 µM
GI50 [23]: 4.22 µM
TGI [23]: 22.8 µM
GI50 [24]: 1.78 µM
TGI [24]: 6.01 µM
GI50 [25]: 11.7 µM
TGI [25]: 68.1 µM
GI50 [26]: 16.4 µM
TGI [26]: 78.5 µM
GI50 [27]: 7.31 µM
TGI [27]: 34.2 µM
GI50 [28]: 2.17 µM
TGI [28]: > 100 µM
GI50 [29]: 1.2 µM
TGI [29]: > 100 µM
GI50 [30]: 2.22 µM
TGI [30]: 5.4 µM
GI50 [31]: 4.05 µM
TGI [31]: 21.3 µM
GI50 [32]: 5.05 µM
TGI [32]: > 100 µM
GI50 [33]: 8.5 µM
TGI [33]: > 100 µM
GI50 [34]: 11.7 µM
TGI [34]: > 100 µM
GI50 [35]: 29.8 µM
TGI [35]: > 100 µM
GI50 [36]: 13.2 µM
TGI [36]: 54.5 µM
GI50 [37]: 9.79 µM
TGI [37]: 84.3 µM
GI50 [38]: 1.54 µM
TGI [38]: 15.5 µM
GI50 [39]: 7.43 µM
TGI [39]: 45.6 µM
GI50 [40]: 7.63 µM
TGI [40]: 55.2 µM
GI50 [41]: > 100 µM
TGI [41]: > 100 µM
GI50 [42]: 38.2 µM
TGI [42]: 93 µM
GI50 [43]: 5.49 µM
TGI [43]: > 100 µM
GI50 [44]: 36.5 µM
TGI [44]: > 100 µM
GI50 [45]: 4.68 µM
TGI [45]: 21.7 µM
GI50 [46]: 1.06 µM
TGI [46]: 7.83 µM
GI50 [47]: 3.08 µM
TGI [47]: > 100 µM
GI50 [48]: 1.59 µM
TGI [48]: > 100 µM
GI50 [49]: 2.58 µM
TGI [49]: > 100 µM
GI50 [50]: 7.34 µM
TGI [50]: > 100 µM
GI50 [51]: 3.54 µM
TGI [51]: > 100 µM
GI50 [52]: 3.76 µM
TGI [52]: 25.3 µM
GI50 [53]: 1.87 µM
TGI [53]: 24.1 µM
